Measured values from US20170008888A1 (KYORIN PHARMACEUTICAL CO., LTD., priority 2014, published 2017).
pEC50, pIC50: −log10 of the molar value.

Assays:
ERK5 = target: T1, ERK5 (Homo sapiens, UniProt Q13164); experiment: Probe-based (AX9989 acyl phosphate ATP probe) kinase profiling in Jurkat lysate: ERK5; assay type: binding; conditions: for pIC50: calculated from percent inhibition of AX9989 labeling and the screening concentration, Jurkat lysate; for inhibition at 1 µM: screening concentration 1.0 μM, read-out: Kinase inhibition % at indicated screening concentration: ERK5
T1 construct: screened for activity against several kinases in Jurkat cells; endogenous in cells; host or cells: Jurkat cell lysate
Method in brief: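 ERK5 IC50 values came from percent inhibition at the screening concentration, measured as loss of LC/MS signal of probe-labelled active-site peptides. Compound was added for 15 min at room temperature to Jurkat lysate (5 mg/ml, 20 mM MnCl2) before labelling with AX9989 ATP acyl phosphate probe at 5 μM.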

AurA = target: T2, AurA (Homo sapiens, UniProt O14965); experiment: Probe-based (AX9989) kinase profiling in Jurkat lysate: AurA; assay type: binding; conditions: screening concentration 1.0 μM; read-out: Kinase inhibition % at indicated screening concentration: AurA
T2 construct: screened for activity against several kinases in Jurkat cells; endogenous in cells; host or cells: Jurkat cell lysate
T2 sequence (O14965 1-403): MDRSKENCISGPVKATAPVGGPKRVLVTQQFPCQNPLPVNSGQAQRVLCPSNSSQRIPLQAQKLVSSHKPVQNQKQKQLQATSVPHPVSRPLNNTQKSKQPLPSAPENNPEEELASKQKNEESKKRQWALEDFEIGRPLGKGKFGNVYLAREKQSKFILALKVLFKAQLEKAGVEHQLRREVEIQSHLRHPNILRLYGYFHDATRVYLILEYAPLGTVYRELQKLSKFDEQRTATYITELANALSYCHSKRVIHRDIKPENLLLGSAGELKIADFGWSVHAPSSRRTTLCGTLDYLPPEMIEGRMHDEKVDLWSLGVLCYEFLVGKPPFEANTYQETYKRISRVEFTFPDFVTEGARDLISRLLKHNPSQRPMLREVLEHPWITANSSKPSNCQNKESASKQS
Method in brief: (§1)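 Jurkat lysate (50 mM HEPES pH 7.5, 150 mM NaCl, 0.1% Triton X-100, 20 mM MnCl2) pre-incubated 15 min with compound at room temperature, then labeled with 5 μM acyl phosphate ATP probe AX9989. Tryptic probe-labeled peptides streptavidin-captured and quantified by LC/MS; percent inhibition from decreased fragment intensity versus untreated.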

AurB or AurC = experiment: Probe-based (AX9989) kinase profiling in Jurkat lysate: AurB or AurC; assay type: binding; conditions: screening concentration 1.0 μM
Method in brief: as §1

JAK1 = target: T3, JAK1 (Homo sapiens, UniProt P23458); experiment: Probe-based (AX9989) kinase profiling in Jurkat lysate: JAK1; assay type: binding; conditions: screening concentration 1.0 μM; read-out: Kinase inhibition % at indicated screening concentration: JAK1
T3 construct: screened for activity against several kinases in Jurkat cells; endogenous in cells; host or cells: Jurkat cell lysate
Method in brief: as §1

AMPKa1 or AMPKa2 = experiment: Probe-based (AX9989) kinase profiling in Jurkat lysate: AMPKa1 or AMPKa2; assay type: binding; conditions: screening concentration 1.0 μM
Method in brief: as §1

TAO2 = target: T4, TAO2 (Homo sapiens, UniProt Q9UL54); experiment: Probe-based (AX9989) kinase profiling in Jurkat lysate: TAO2; assay type: binding; conditions: screening concentration 1.0 μM; read-out: Kinase inhibition % at indicated screening concentration: TAO2
T4 construct: screened for activity against several kinases in Jurkat cells; endogenous in cells; host or cells: Jurkat cell lysate
T4 sequence (Q9UL54 1-1235): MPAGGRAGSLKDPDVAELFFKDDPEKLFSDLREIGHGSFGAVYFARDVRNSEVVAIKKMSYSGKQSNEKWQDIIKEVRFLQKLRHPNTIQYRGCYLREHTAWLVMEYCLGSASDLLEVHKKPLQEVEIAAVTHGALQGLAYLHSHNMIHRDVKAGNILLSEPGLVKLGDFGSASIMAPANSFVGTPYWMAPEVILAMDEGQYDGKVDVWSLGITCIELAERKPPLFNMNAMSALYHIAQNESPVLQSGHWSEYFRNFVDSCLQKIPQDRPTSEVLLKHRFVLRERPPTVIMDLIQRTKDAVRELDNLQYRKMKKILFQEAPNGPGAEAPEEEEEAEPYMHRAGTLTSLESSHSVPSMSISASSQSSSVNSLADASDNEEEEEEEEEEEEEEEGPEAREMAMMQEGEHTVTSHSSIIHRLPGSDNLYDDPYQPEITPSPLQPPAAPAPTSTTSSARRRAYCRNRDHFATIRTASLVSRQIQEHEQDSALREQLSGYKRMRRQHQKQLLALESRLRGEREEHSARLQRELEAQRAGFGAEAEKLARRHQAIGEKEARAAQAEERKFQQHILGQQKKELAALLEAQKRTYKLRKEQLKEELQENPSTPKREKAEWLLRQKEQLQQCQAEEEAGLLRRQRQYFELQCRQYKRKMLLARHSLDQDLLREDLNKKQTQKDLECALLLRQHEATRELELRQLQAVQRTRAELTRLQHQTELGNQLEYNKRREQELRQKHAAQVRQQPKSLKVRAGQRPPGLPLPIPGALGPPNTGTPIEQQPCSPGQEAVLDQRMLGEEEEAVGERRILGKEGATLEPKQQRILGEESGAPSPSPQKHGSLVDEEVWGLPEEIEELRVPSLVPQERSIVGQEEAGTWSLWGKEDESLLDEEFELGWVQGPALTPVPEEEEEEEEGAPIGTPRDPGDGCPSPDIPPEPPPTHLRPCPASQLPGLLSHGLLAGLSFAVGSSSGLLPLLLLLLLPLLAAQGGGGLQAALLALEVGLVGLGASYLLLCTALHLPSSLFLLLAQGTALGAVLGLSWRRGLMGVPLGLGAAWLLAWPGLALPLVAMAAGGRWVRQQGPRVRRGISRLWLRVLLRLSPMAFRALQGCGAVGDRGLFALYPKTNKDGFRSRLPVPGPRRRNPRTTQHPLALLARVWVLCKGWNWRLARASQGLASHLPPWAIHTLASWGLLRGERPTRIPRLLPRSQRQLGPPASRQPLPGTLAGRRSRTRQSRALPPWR
Method in brief: as §1

ACK = target: T5, ACK (Homo sapiens, UniProt Q07912); experiment: Probe-based (AX9989) kinase profiling in Jurkat lysate: ACK; assay type: binding; conditions: screening concentration 1.0 μM; read-out: Kinase inhibition % at indicated screening concentration: ACK
T5 construct: screened for activity against several kinases in Jurkat cells; endogenous in cells; host or cells: Jurkat cell lysate
Method in brief: as §1

ABL or ARG = experiment: Probe-based (AX9989) kinase profiling in Jurkat lysate: ABL or ARG; assay type: binding; conditions: screening concentration 1.0 μM
Method in brief: as §1

[1] = target: T6, BRD4 bromodomain domain I [BRD4(1)] (Homo sapiens, UniProt O60885); experiment: BRD4 bromodomain domain 1 inhibition assay (TR-FRET); assay type: binding; conditions: for inhibition at 10 µM: screening concentration 10 μM
T6 construct: BRD4 bromodomain domain I [BRD4(1)]; purchased Cayman Chemicals
Description: The inhibitory activity of test compounds on the bromodomain, BRD4 bromodomain domain I [BRD4(1)], were determined via TR-FRET after a slight modification of the manufacturer's protocol (Cayman Chemicals, Ann Arbor, Mich.). Briefly, compounds were diluted to a 20× ([…]) concentration in DMSO. 100 nL of 20× compounds were then dry stamped into triplicate wells of black, low volume 384 well plates (Aurora Biotechnologies, Carlsbad, Calif.) using the Mosquito liquid handler (TPP Labtech, Melbourn, UK). 20× compounds were then diluted to a 4× (40 μM) concentration in Assay Buffer to result in 2% DMSO content. […] JQ1 at 10 μM or 0.5% DMSO final concentrations were used as the positive and negative controls, respectively, to set the assay window. The fluorescence was read in a time-resolved format on the Biotec Synergy 2 plate reader by exciting the signal at 340 nm and reading emissions at 620 and 670, using a 100 μs delay and 200 μs read window. […] Briefly, TR-FRET ratio values were normalized to the average TR-FRET ratio value given by 10 μM JQ1. […]

human PBMCs = experiment: Human PBMC TNF-α response to endotoxin (ELISA); assay type: cell-based; conditions: 0.1 μg/ml LPS 16 h, read-out: EC50 for the inhibition of the human PBMC TNF-α response to endotoxin, ave. ± S.D.
Method in brief: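 PBMCs at 2e6 cells/ml in RPMI 1640 with 10% charcoal-dextran-treated FBS were pre-treated 1 h at 37 °C with compound (4-point 1:5 dilution from 10 μM). Stimulation with 0.1 μg/ml E. coli 0111:B4 LPS for 16 h; TNF-α measured by ELISA (A450) in 25-fold diluted supernatant.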

T3 sequence (P23458 whole entry): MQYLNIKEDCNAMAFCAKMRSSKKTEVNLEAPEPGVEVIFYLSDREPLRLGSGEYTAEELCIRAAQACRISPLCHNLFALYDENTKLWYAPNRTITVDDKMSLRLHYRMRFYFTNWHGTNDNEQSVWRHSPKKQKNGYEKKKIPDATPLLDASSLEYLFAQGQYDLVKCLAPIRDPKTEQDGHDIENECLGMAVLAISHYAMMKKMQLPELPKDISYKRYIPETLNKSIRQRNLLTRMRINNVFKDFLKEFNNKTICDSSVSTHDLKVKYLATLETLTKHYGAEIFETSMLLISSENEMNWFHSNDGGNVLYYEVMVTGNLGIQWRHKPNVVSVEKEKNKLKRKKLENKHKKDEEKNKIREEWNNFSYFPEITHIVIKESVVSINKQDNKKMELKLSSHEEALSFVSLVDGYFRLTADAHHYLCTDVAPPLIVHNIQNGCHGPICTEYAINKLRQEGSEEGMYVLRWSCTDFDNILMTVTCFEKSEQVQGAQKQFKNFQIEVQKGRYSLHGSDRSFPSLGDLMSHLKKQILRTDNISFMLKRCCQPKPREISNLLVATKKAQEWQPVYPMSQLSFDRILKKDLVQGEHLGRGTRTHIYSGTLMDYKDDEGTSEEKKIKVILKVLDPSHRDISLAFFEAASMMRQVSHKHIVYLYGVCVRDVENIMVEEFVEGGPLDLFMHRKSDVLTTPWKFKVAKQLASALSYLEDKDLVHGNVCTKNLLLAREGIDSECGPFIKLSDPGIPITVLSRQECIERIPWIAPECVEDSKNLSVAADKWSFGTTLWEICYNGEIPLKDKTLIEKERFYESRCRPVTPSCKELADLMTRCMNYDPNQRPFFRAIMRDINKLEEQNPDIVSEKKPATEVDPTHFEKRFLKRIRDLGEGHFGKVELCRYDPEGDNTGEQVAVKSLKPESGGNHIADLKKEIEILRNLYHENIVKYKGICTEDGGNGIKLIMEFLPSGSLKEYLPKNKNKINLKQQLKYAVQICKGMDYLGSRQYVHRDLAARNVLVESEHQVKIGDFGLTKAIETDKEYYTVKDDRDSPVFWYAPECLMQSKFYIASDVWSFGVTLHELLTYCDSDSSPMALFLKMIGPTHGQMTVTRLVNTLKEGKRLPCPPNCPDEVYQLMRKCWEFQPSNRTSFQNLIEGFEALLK
T1 sequence (Q13164 whole entry): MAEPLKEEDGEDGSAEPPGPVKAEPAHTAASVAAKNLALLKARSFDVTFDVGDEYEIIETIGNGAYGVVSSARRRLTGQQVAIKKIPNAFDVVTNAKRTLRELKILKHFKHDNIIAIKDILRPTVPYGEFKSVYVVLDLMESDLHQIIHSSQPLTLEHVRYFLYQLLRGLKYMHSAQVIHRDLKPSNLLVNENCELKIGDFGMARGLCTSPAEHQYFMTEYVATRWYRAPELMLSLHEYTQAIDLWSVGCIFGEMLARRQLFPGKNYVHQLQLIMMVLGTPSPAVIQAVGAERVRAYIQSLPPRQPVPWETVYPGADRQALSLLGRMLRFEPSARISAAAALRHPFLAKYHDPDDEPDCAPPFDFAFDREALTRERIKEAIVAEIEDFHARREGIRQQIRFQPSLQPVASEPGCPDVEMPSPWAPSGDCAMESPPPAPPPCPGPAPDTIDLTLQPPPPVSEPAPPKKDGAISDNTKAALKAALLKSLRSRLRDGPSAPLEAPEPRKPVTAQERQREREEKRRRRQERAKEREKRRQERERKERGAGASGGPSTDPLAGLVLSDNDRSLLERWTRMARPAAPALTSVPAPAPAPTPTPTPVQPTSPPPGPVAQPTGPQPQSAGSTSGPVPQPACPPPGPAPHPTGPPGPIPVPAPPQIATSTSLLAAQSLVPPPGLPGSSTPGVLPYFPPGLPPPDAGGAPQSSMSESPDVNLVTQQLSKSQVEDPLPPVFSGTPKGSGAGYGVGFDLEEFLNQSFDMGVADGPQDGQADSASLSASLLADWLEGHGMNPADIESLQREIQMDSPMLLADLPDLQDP
T5 sequence (Q07912 whole entry): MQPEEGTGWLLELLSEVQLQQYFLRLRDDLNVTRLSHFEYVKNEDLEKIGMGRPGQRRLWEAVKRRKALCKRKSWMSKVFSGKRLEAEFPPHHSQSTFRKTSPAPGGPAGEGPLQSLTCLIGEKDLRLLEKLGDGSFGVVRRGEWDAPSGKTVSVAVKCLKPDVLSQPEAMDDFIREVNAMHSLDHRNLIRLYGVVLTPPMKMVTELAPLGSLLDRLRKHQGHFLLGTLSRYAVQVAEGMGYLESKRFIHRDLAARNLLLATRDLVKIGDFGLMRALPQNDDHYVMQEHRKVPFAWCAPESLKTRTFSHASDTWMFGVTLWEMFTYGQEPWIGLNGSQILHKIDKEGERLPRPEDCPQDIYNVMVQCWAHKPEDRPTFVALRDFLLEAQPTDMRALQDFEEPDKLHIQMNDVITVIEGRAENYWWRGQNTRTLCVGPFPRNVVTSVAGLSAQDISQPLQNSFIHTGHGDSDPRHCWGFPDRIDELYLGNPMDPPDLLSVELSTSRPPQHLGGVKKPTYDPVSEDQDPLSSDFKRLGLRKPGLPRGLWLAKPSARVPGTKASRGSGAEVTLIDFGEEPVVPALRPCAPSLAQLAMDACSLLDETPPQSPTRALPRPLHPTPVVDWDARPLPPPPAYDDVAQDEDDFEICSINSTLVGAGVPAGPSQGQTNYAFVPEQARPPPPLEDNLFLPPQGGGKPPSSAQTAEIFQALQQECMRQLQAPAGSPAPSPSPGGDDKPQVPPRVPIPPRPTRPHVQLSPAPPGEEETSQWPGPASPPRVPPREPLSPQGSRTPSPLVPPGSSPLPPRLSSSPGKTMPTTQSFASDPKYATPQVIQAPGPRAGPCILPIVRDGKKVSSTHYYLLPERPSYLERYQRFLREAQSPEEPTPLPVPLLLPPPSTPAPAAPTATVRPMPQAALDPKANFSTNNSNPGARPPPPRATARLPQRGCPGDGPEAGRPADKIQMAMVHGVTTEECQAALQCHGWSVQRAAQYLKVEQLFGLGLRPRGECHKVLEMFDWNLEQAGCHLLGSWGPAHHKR

Structure (SMILES)	pIC50 (ERK5)	inhibition at 1 µM (ERK5) [%]	inhibition at 1 µM (AurA) [%]	Kinase inhibition % at indicated screening concentration: AurB or AurC (AurB or AurC)	inhibition at 1 µM (JAK1) [%]	Kinase inhibition % at indicated screening concentration: AMPKa1 or AMPKa2 (AMPKa1 or AMPKa2)	inhibition at 1 µM (TAO2) [%]	inhibition at 1 µM (ACK) [%]	Kinase inhibition % at indicated screening concentration: ABL or ARG (ABL or ARG)	inhibition at 10 µM [1] [%]	pEC50 (human PBMCs)	pIC50 [1]
CCOc1cc(C(=O)NC(CO)CO)ccc1Nc1cc2c(cn1)N(C)C(=O)c1ccccc1N2C [Compound 48]	6.30 to 7.00	50 to 75	≤ 35	E (E is ≦35%)	≤ 35	E (E is ≦35%)	≤ 35	≤ 35	E (E is ≦35%)	< 70		
COc1c(Nc2cc3c(cn2)N(C)C(=O)c2ccccc2N3C)cccc1C(=O)N1CCNCC1 [Compound 78]	< 6.30	50 to 75	≤ 35	E (E is ≦35%)	≤ 35	E (E is ≦35%)	≤ 35	≤ 35	E (E is ≦35%)	70 to 85		
CN1C(=O)c2ccccc2N(C)c2cc(N[C@H]3CC[C@H](Nc4ncccn4)CC3)ncc21 [Compound 47]	< 6.30	35 to 50	≤ 35	E (E is ≦35%)	≤ 35	E (E is ≦35%)	≤ 35	≤ 35	E (E is ≦35%)	< 70		
CCOc1cc(C(=O)Nc2ccncc2)ccc1Nc1cc2c(cn1)N(C)C(=O)c1ccccc1N2C [Compound 7]	< 6.30	35 to 50	≤ 35	E (E is ≦35%)	≤ 35	E (E is ≦35%)	≤ 35	≤ 35	E (E is ≦35%)	< 70		
CCOc1cc(C(=O)NCCN(C)C)ccc1Nc1cc2c(cn1)N(C)C(=O)c1ccccc1N2C [Compound 1]	6.30 to 7.00	75 to 90								70 to 85		
CN1C(=O)c2ccccc2N(C)c2cc(N[C@H]3CC[C@H](O)CC3)ncc21 [Compound 33, 3-((1r,4r)-4-hydroxycyclohexylamino)-5,11-dimethyl-5H-benzo[e]pyrido[3,4-b][1,4]diazepin-10(11H)-one]	6.30 to 7.00	75 to 90	≤ 35	E (E is ≦35%)	≤ 35	E (E is ≦35%)	≤ 35	≤ 35	E (E is ≦35%)	< 70		
CN1C(=O)c2ccccc2N(C)c2cc(NC3CCC(N)CC3)ncc21 (stereo not drawn) [Compound 79]	6.30 to 7.00	75 to 90	≤ 35	E (E is ≦35%)	≤ 35	E (E is ≦35%)	≤ 35	≤ 35	E (E is ≦35%)	< 70		
CCOc1cc(C(=O)NC2CC2)ccc1Nc1cc2c(cn1)N(C)C(=O)c1ccccc1N2C [Compound 2]	< 6.30	≤ 35								< 70		
CCOc1cc(C(=O)NC2CCC(O)CC2)ccc1Nc1cc2c(cn1)N(C)C(=O)c1ccccc1N2C (stereo not drawn) [Compound 109]	< 6.30	35 to 50	≤ 35	E (E is ≦35%)	≤ 35	E (E is ≦35%)	≤ 35	≤ 35	E (E is ≦35%)	< 70		
CN1C(=O)c2ccccc2S(=O)(=O)c2cc(N[C@H]3CC[C@H](O)CC3)ncc21 [Compound T127]											5.34	< 5.30
CCOc1cc(C(=O)N2CC[C@H](NC3CCN(C)CC3)C2)ccc1Nc1cc2c(cn1)N(C)C(=O)c1ccccc1N2C [Compound T61]										> 85	6.38	
CCOc1cc(C(=O)N2CCC(N3CCN(C)CC3)CC2)ccc1Nc1cc2c(cn1)N(C)C(=O)C1CCCCC1N2C (stereo not drawn) [Compound 68]	< 6.30	≤ 35	≤ 35	E (E is ≦35%)	≤ 35	E (E is ≦35%)	≤ 35	≤ 35	E (E is ≦35%)		< 5.00	
